From US4510144A, “Methods of imparting immunomodulating activity with dihydrothiazolo purine derivatives” (Newport Pharmaceuticals International, priority 1982, dated 1985)
Entries after “also recorded” stand apart in the source; their conditions may differ.

How the values were obtained:
[1] = tested on: splenocytes from athymic mice (theta positive cells); test: induction of theta positive cells in splenocytes from athymic (nude) mice in vitro; type: cell-based; conditions: in vitro
From the text: (4) Induction of theta positive cells in nude mice (in vitro).

[2] = tested on: murine spleen cells, Con A induced (T-cells); test: Con A induced lymphocyte proliferation in mouse spleen cells in vitro; type: cell-based, mouse (Balb/C); conditions: for activity at 25 µg/mL: drug 25,000 ng/ml; for effect on Con A induced proliferation (T-cell response), in words: in vitro
From the text: (§1) (1) Mitogen-(Lipopolysaccharide, LPS or Con A) induced lymphocyte proliferation using murine spleen cells (in vitro)
(§2) 1. […] LPS is a mitogen which acts preferentially on B-cells. […] Con A is considered a T-cell mitogen.
(§3) 1. Balb/C male mice, 7-8 weeks old, are used up to 20-24 weeks of age.
(§4) 2. The animals are sacrificed by cervical dislocation and the animals' left sides swabbed with 70% ethanol. An incision is made between the lower ribs and pelvis, laterally from front to back, and the skin retracted. Aseptic technique is to be observed from this point on.
(§5) 3. The spleen is gently removed with sterile forceps. […] When all spleens have been collected and cleaned they are placed in a second petri dish containing 3 ml cold RPMI.
(§6) 4. Spleen cell suspensions are prepared by gentle mincing of the tissue with a sterile blade and filtering through #100 stainless steel mesh.
(§7) 6. An aliquot of the above suspension is prepared for cell counting as follows: 0.1 ml of suspension is diluted to 1.0 ml with 3% acetic acid and let stand at room temperature for at least five minutes. The sample is then diluted 1:100 with "Isoton II" (Curtis-Matheson Co.) and counted in a coulter counter.
(§8) MURINE SPLENOCYTE STIMULATION WITH CONCANAVALIN A (CON A), LIPOPOLYSACCHARIDE (LPS), AND ALLOGENEIC SPLENOCYTES (LMC).
(§9) There is set forth below the standard procedure which should be modified according to the solubility and other properties of the particular compound tested.
(§10) Add ~10 ml RPMI to 1.79 g HEPES and vortex until completely dissolved. […] Allow to warm temperature before use.
5. Con A (Calbiochem)--100 mg/ml NaCl injection solution (McGaw), filter, aliquot in 1 ml, and store at -70° C.
(§11) 8. Tritiated thymidine (^3 H-TdR, Schwartz-Mann, 6 Ci/mM). Remove a slightly larger volume of ^3 H-TdR than needed from vial with a 1 cc syringe and place volume in the cap of a small sterile plastic tube. […] Vortex thoroughly before adding to plates.
(§12) 1. Animals are sacrificed by cervical dislocation killing one from each group and processing the cells individually before killing the next animal. Swab each animal with 70% ethanol before surgery. […] Use 8 vertical strokes (or enough to break up all tissue) with Teflon-tipped homogenizer. Filter each sample through a 100 mesh screen into a 50 ml tube. […] After all samples have been spun, vortex each briefly and let sit for 1 hour. Vortex each sample ~5 seconds, waiting ~10 seconds between each sample. Let sit 5 minutes, then pipet cell suspension into 5 ml (12×75 mm) tube being careful not to remove any sediment. Remove 50 ul cell suspension using micropipetter, carefully wipe pipet tip with kimwipe and pipet into 20 ml Isoton in Coulter counter vial, rinsing pipet several times in the Isoton. Add 6 drops of CyMet and swirl vial to mix. Use the following Coulter counter settings: Amplification-1, Threshold-10, and Aperture Current-1. Clean counter with Isoterge the morning of experiment and count background before standardizing with CH 0.60 Hematology Controls. After cell counts are obtained, dilute to 6×10^6 cells/ml with supplemented RPMI and aliquot into 3 tubes for the 3 assays.
(§13) 1. Pipet 100 μl control media (supplemented RPMI) or appropriate dilution of mitogen (starting with lowest concentration) into microtiter plate using Titertek multi-channel pipetter. Place plates in 37° C. CO2 incubator with CO2 set at 0.5 after each plate has been pipetted. Pipet 100 μl responder cells into wells starting with most dilute mitogen concentration. Place plates in incubator as they are filled and after all plates are in incubator, let sit for 10-20 minutes. Wrap plates with plastic wrap, recover with top, replace in incubator, and reset CO2 to ~0.05. Save ~50 ml supplemented RPMI at 4° C. for thymidine dilution. After ~44 hours warm the RPMI to 37° C. in incubator. Dilute tritiated Thymidine 1:100 in warmed RPMI. Use Titertek to add 50 μl Thymidine to each well. Treat plates as above and incubate overnight (~18 hours).

[3] = tested on: murine spleen cells, LPS induced (B-cells); test: LPS induced lymphocyte proliferation in mouse spleen cells in vitro; type: cell-based, mouse (Balb/C); conditions: for activity at 25 µg/mL: drug 25,000 ng/ml; for effect on B-cell response / LPS induced proliferation, in words: in vitro
From the text: as §1, §2, §3, §4, §5, §6, §7, §8, §9, §10
6. LPS (Sigma, E, coli serotype #011:84)--~1 mg/ml. […] Remove ~10 ml for dissolving HEPES (0.358 g) and filter HEPES solution. Add four 25 mg bottles of LPS to remaining media and incubate at 37° C. for 1 hour. Filter through 0.22 μm filters, add filtered HEPES, aliquot in 2 ml and store at -70° C.
as §11, §12
as §13, with “dilution.” for “dilution. After ~44 hours warm the RPMI to 37° C. in incubator. Dilute tritiated Thymidine 1:100 in warmed RPMI. Use Titertek to add 50 μl Thymidine to each well. Treat plates as above and incubate overnight (~18 hours).”

[4] = tested on: antibody production to sheep red blood cells (SRBC); test: antigen (SRBC) dependent antibody synthesis in vivo (IgM plaques); parameters: species or system Balb/C mice; conditions: for effect on antibody production in vivo, in words: SRBC immunized mice; for % change from control, antibody response to SRBC: Table X
Method: (3) Antigen (sheep red blood cell, SRBC) dependent antibody synthesis (in vivo)
as §9
1. A solution containing 500 μg/ml NPT is prepared by adding a preweighed amount of the drup powder to sterile BPS (phosphate buffered saline) and sonicating the solution for 30 minutes.
1. NPT drug solution is made by dissolving 500 μg NPT per mil PBS.
1. A 1.4% suspension of agarose in PBS (7 g in 500 ml) is autoclaved for 15 min.
1. Mice are immunized as follows: sheep blood (sheep #23) is received weekly from Hyland labs. It is asceptically collected in two volumes of Alseviers to one volume of blood.
6. The cell count is determined and the stock solution is diluted to 4×10^7 cells/ml. This final suspension is used for immunization.
7. Each mouse is immunized by i.v. injection into the lateral tail vein (warmed in a 50° C. water bath for veinous dilation) with 0.1 ml SRBC (sheep red blood cell) suspensions; the final concentration of SRBC's is 4×10^6 per mouse.
1. Mice are treated by i.p. injection on days […], 1, 2, and 3. A syringe (1 cc) is fitted with a one-half inch, 26 gauge needle. The needle is introduced at a 45° angle along the right side of the linea alba. A 0.2 ml volume is given to both drug and control treated groups.
2. Drug groups are given 0.2 ml of a desired concentration NPT solution which, for a 20 g mouse, is […].
1. Spleens are removed asceptically and placed individually in Falcon #2025 tissue culture tubes containing 3 ml MEM. The tubes are then stored on ice.
2. Spleens are homogenized in the same tube with a teflon pestle attached to a G. K. Heller variable speed reversible motor connected with a G. K. Heller GT-21 motor controller setting #6.
6. The cell count is obtained and the stock suspension is diluted to 1×10^7 cells/ml. The Coulter counter threshhold is set at 10. Red cells are lysed with three drops of Zap isoton.
1. Thirty-five hundredths gram agarose and 0.53 grams MEM powder are placed into an Erlenmeyer flask. Fifty ml of distilled H2 O is then added to the flask.
1. Five ml sheep blood (same batch as used for immunization) is washed three times in PBS using an IEC Clinical Standard Centrifuge, speed #4 (2800 RPM) for 10 min.
1. Agar plates are removed from refrigerator and allowed to warm to room temperature. They are labeled in triplicate for each experimental group.
2. Agar-filled tubes are removed from the water bath. One-tenth of the 10% SRBC's and 0.1 ml spleen cell suspension are added to each agar tube. The tubes are agitated on a Vortex mixer.
3. The contents of the tubes are poured immediately into agar base plates and swirled until a smooth layer is formed. The plates are placed on a level surface until the agar solidifies.
4. The plates are incubated at 37° C. in a humidified atmosphere of 5% CO2 and 95% air for 90 min.
6. Plates are removed from incubator and 1 ml of the diluted complement is added to each plate.
7. Plates are then incubated another 30-45 minutes at 37° C. Plates are then removed from incubator and counted using oblique light.

[5] = Mus musculus, Con A .375 μg/ml, read-out: Con A D/C (maximum values)
[6] = Mus musculus, B-cell, LPS 5 μg/ml, read-out: LPS D/C (maximum values)
[7] = 0.05 mg/kg, *P ≤ 0.001 where starred
[8] = 0.5 mg/kg, *P ≤ 0.001 where starred
[9] = 5.0 mg/kg, *P ≤ 0.001 where starred, NPT 16485 N.S.

SMILES: c1ccc([C@H]2CN3CCSC3=N2)cc1 [Levamisole, reference compound]
- production of theta positive (T) cells, in words [1]: does not possess this property

SMILES: Nc1ncnc2c1nc1n2CCS1 [NPT 16422, 3-amino-7,8-dihydrothiazolo-[3,2e]-purine]
- activity at 25 µg/mL [2, 5]: 20%
- effect on Con A induced proliferation (T-cell response), in words [2]: potent inhibitors; also recorded: capable of inhibiting
- activity at 25 µg/mL [3, 6]: 37%
- effect on antibody production in vivo, in words [4]: capable of inhibiting

SMILES: CSc1ncnc2c1nc1n2CCS1 [NPT 16439, 3-methylmercapto-7,8-dihydrothiazolo-[3,2e]-purine]
- activity at 4.5 µg/mL ([2]; Mus musculus, drug 4,500 ng/ml, Con A .375 μg/ml, read-out: Con A D/C (maximum values)): 57%
- effect on Con A induced proliferation (T-cell response), in words [2]: potent inhibitors
- effect on Con A induced proliferation (T-cell response), in words ([2]; listed as 16439): capable of inhibiting
- effect on Con A induced proliferation (T-cell response), in words ([2]; listed as Ib): inhibiting the T-cell response
- activity at 4.5 µg/mL ([3]; Mus musculus, B-cell, drug 4,500 ng/ml, LPS 5 μg/ml, read-out: LPS D/C (maximum values)): 100%
- effect on antibody production in vivo, in words [4]: potent inhibitor of antibody production
- effect on antibody production in vivo, in words ([4]; listed as 16439): capable of inhibiting
- % change from control, antibody response to SRBC [4, 7]: -40%
- % change from control, antibody response to SRBC ([4]; dose = 0.2 mg/kg): -63%

SMILES: O=c1c2nc3n(c2nc2n1CCS2)CCS3 [NPT 16449, 6-hydroxy-Bis-(3,4-dihydrothiazolo-8,9-dihydrothiazolo)-[3,2e-2,3f]purine]
- activity at 21 µg/mL ([2]; Mus musculus, drug 21,000 ng/ml, Con A .375 μg/ml, read-out: Con A D/C (maximum values)): 100%
- activity at 21 µg/mL ([3]; Mus musculus, B-cell, drug 21,000 ng/ml, LPS 5 μg/ml, read-out: LPS D/C (maximum values)): 157%
- effect on B-cell response / LPS induced proliferation, in words [3]: enhance B-cell proliferation
- effect on B-cell response / LPS induced proliferation, in words ([3]; listed as IVa): stimulating the B-cell response
- effect on antibody production in vivo, in words [4]: enhancement of production of specific antibodies in vivo
- % change from control, antibody response to SRBC [4, 7]: +183%
- % change from control, antibody response to SRBC [4, 8]: +59%

SMILES: Oc1c2ncnc-2nc2n1CCS2 [NPT 16450, 6-hydroxy-7,8-dihydrothiazolo-[3,2a]-purine]
- activity at 25 µg/mL [2, 5]: 107%
- activity at 25 µg/mL [3, 6]: 118%
- % change from control, antibody response to SRBC [4, 7]: -64%
- % change from control, antibody response to SRBC [4, 8]: +15%
- % change from control, antibody response to SRBC [4, 9]: +36%

SMILES: CSc1nc(O)c2nc3n(c2n1)CCS3 [NPT 16472, 3-hydroxy-5-methylmercapto-7,8-dihydrothiazolo-[3,2e]-purine]
- activity at 0.01 µg/mL ([2]; Mus musculus, drug 10 ng/ml, Con A .375 μg/ml, read-out: Con A D/C (maximum values)): 100%
- activity at 0.01 µg/mL ([3]; Mus musculus, B-cell, drug 10 ng/ml, LPS 5 μg/ml, read-out: LPS D/C (maximum values)): 131%
- effect on B-cell response / LPS induced proliferation, in words [3]: stimulating the B-cell response
- % change from control, antibody response to SRBC ([4]; dose = 0.035 mg/kg, P < 0.05): +13%

SMILES: Oc1ncnc2nc3n(c12)CCS3 [NPT 16485, 6-hydroxy-7,8-dihydrothiazolo-[2,3f]-purine]
- activity at 25 µg/mL [2, 5]: 118%
- activity at 25 µg/mL [3, 6]: 185%
- effect on B-cell response / LPS induced proliferation, in words [3]: enhance B-cell proliferation
- effect on B-cell response / LPS induced proliferation, in words ([3]; listed as IIa): stimulating the B-cell response
- effect on antibody production in vivo, in words [4]: enhancement of production of specific antibodies in vivo
- % change from control, antibody response to SRBC [4, 7]: +28%
- % change from control, antibody response to SRBC [4, 8]: +134%
- % change from control, antibody response to SRBC [4, 9]: +1.7%
